Results: patent publication US20240327418A1, “MULTI-TARGET INHIBITOR TARGETING HDAC AND NAD SYNTHESIS AND USE OF MULTI-TARGET INHIBITOR” (OCEAN UNIVERSITY OF CHINA, priority 2021, published 2024)

Key:
[1] = target: HDAC2 (Homo sapiens (Human), UniProt Q92769); assay: Inhibitory activity on HDAC2 (fluorescence enzyme assay); settings: read-out: IC50 HDAC2; mean of three independent experiments
[2] = target: HDAC3 (Homo sapiens (Human), UniProt O15379); assay: Inhibitory activity on HDAC3 (fluorescence enzyme assay); settings: read-out: IC50 HDAC3; mean of three independent experiments
[3] = tested on: acute myelogenous leukemia cells MV4-11; assay: GI50 and LC50 by NCI method, MV4-11; type: cell-based; settings: Homo sapiens, 48 hours, Cell Titer-Blue
Method: (§1) The median growth inhibitory concentration (GI50) and median lethal concentration (LC50) were determined by NCI method. Leukemia cell strains MV4-11, HL60, PL21, KASUMI-1, MONO-MAC-1 and NB-4 were cultured in an Iscove's Modified Dulbecco Medium (IMDM) containing 10% fetal bovine serum, were inoculated into a 96-well cell culture plate at a density of 10,000 cells/100 μL and cultured overnight. 6 wells were selected as Tz wells, 0.125 mg/mL Cell Titer-Blue dye was added, and the cells were cultured for 4 hours and then the fluorescence intensity at […] (excitation wavelength/emission wavelength) was read. Compounds of different concentrations were added to the remaining wells, and a 100% control group was set. After 48 hours of cultivation, 0.125 mg/mL Cell Titer-Blue dye was added and the fluorescence intensity at […] was read after 4 hours. The fluorescence intensity of the dosing group was represented by Ti, the fluorescence intensity of the 100% control group was represented by C, and the fluorescence intensity before dosing was represented by Tz.
(§2) If Ti≥Tz, the formula [(Ti−Tz)/(C−Tz)]×100 was used.
(§3) If Ti<Tz, the formula [(Ti−Tz)/Tz]×100 was used.
(§4) The GI50 and LC50 values of some compounds on leukemia cell strains MV4-11, HL60, PL21, KASUMI-1, MONO-MAC-1 and NB-4 are shown in FIG. 1, Table 3, FIG. 2, and Table 4.

[4] = tested on: acute myelogenous leukemia cells HL60; assay: GI50 and LC50 by NCI method, HL60; type: cell-based; settings: for CC50 / GI50: Homo sapiens, HL-60, 48 hours, Cell Titer-Blue
Method: as §1, §2, §3, §4

[5] = target: HDAC1 (Homo sapiens (Human), UniProt Q13547); assay: Inhibitory activity on HDAC1 (fluorescence enzyme assay); settings: read-out: IC50 HDAC1; mean of three independent experiments
HDAC1, sequence (Q13547 whole entry, species assumed): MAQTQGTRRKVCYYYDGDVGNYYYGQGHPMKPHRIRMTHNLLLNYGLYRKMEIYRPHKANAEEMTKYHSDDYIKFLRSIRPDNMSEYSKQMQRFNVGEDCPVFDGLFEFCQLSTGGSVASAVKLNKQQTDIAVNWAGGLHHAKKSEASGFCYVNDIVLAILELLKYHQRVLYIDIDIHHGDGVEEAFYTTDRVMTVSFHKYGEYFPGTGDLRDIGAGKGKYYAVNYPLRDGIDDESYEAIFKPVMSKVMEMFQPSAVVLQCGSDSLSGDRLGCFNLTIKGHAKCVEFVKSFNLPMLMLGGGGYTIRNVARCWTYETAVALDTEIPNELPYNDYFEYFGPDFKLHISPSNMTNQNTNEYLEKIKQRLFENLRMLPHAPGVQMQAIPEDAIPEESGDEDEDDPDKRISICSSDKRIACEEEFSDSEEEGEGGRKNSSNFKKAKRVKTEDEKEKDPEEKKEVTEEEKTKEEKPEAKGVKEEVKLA

HDAC3, sequence (O15379 whole entry, species assumed): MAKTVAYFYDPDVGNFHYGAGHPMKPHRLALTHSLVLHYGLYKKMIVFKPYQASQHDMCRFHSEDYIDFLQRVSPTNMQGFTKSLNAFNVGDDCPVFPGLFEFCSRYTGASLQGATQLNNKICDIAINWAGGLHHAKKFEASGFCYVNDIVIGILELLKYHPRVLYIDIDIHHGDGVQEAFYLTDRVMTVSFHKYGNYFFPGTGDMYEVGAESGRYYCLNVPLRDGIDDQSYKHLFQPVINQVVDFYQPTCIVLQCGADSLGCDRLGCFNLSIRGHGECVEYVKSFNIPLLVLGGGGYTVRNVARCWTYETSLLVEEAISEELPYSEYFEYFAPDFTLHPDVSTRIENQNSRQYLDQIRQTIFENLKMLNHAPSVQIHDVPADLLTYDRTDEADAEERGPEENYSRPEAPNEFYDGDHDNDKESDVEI
HDAC3, sequence (Q9Y618 395-489 partner, species assumed): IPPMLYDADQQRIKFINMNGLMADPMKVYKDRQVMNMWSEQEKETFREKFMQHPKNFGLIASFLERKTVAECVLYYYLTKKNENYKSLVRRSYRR
HDAC2, sequence (Q92769 whole entry, species assumed): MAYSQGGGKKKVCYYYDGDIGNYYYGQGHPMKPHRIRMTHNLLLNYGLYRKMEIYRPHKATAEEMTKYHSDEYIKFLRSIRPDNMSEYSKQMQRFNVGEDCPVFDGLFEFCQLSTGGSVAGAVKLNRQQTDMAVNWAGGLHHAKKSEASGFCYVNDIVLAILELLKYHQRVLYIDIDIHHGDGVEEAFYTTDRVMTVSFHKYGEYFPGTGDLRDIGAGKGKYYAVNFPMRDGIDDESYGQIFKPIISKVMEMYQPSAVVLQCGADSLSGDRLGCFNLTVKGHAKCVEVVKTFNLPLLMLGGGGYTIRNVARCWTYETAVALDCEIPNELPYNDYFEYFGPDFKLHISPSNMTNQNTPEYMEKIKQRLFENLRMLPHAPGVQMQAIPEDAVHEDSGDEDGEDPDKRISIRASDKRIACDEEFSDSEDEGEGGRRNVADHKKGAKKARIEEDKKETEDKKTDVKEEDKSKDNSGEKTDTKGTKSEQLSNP

SMILES | IC50 [1] | IC50 [2] | GI50 [3] | CC50 [4] | GI50 [4] | IC50 [5] | LC50 (median lethal concentration) [3] | LC50 values in p53-null cell strain HL60 (in words) [4]
CCCNNC(=O)c1ccc(NC(=O)CCCCCCNC(=O)/C=C/c2cccnc2)cc1 [LEE40, (E)-N-(4-(2-propylhydrazino-1-carbonyl)phenyl)-7-(3-(pyridine-3-yl)acrylamido) heptamide] | 123 nM | 12.4 nM | 15.7 nM |  |  |  |  | 
CCCNNC(=O)c1ccc(CNC(=O)/C=C/c2ccccn2)cc1 [LEE13, (E)-N-(4-(2-propylhydrazino-1-carbonyl)benzyl)-3-(pyridin-2-yl) acrylamide] | 49.2 nM | 1.82 nM | 15 nM | > 10000 nM | 128 nM | 13.2 nM | 125 nM | 
CCCNNC(=O)CCCCNC(=O)/C=C/c1cccnc1 [LEE2, (E)-N-(5-oxo-5-(2-propylhydrazino)pentyl)-3-(pyridin-3-yl) acrylamide] | 2000 nM | 112 nM |  |  |  | 689 nM |  | 
CCCNNC(=O)c1ccc(CNC(=O)CCCCCCCNC(=O)/C=C/c2cccnc2)cc1 [LEE37, (E)-N-(4-(2-propylhydrazino-1-carbonyl)benzyl)-8-(3-(pyridine-3-yl)acrylamido) octanamide] | 84.1 nM | 1.98 nM |  |  |  | 17.8 nM |  | 
CCCNNC(=O)CCCCCCNC(=O)NCc1cccnc1 [LEE5, 1-(7-oxo-7-(2-propylhydrazino)heptyl)-3-(pyridin-3-ylmethyl) urea] | 398 nM | 110 nM |  |  |  | 444 nM |  | 
CCCNNC(=O)CCCCCCNC(=O)c1cc2cnccc2[nH]1 [LEE7, N-(7-oxo-7-(2-propylhydrazino)heptyl)-3H-pyrrolo[3,2-c]pyridin-2-carboxamide] |  |  | 64.7 nM | 724 nM | 158 nM |  | 164 nM | nanomolar level
CCCNNC(=O)CCCCCCCNC(=O)/C=C/c1cccnc1 [LEE4, (E)-N-(8-oxo-8-(2-propylhydrazino)octyl)-3-(pyridin-3-yl) acrylamide] | 506 nM | 76.7 nM |  |  |  | 241 nM |  | 
CCCNNC(=O)CCCCCCNC(=O)/C=C/c1cccnc1 [LEE3, (E)-N-(7-oxo-7-(2-propylhydrazino)heptyl)-3-(pyridin-3-yl) acrylamide] | 339 nM |  |  |  |  |  |  | 
CCCNNC(=O)c1ccc(CNC(=O)CCCCCCNC(=O)/C=C/c2cccnc2)cc1 [LEE39, (E)-N-(4-(2-propylhydrazino-1-carbonyl)benzyl)-7-(3-(pyridine-3-yl)acrylamido) heptanamide] | 1180 nM | 84.3 nM |  |  |  | 501 nM |  | 
Nc1ccccc1NC(=O)CCCCCCCNC(=O)/C=C/c1cccnc1 [LEE8, (E)-N-(2-aminophenyl)-8-(3-(pyridin-3-yl)acrylamido) octanamide] | 321 nM | 26.4 nM | 31.2 nM |  |  | 147 nM | 456 nM | 
CCCNNC(=O)c1ccc(NC(=O)CCCCCCCNC(=O)/C=C/c2cccnc2)cc1 [LEE38, (E)-N-(4-(2-propylhydrazino-1-carbonyl)phenyl)-8-(3-(pyridine-3-yl)acrylamido) amide] | 539 nM | 97.4 nM |  |  |  | 620 nM |  | 
O=C(/C=C/c1cccnc1)NCCCCC1CCN(C(=O)c2ccccc2)CC1 [FK866, reference compound] |  |  | 7.95 nM | > 10000 nM | 12.1 nM |  |  | 
Nc1ccccc1NC(=O)CCCCCCCn1cc(-c2cccnc2)nn1 [LEE11, N-(2-aminophenyl)-8-(4-(pyridin-3-yl)-1H-1,2,3-triazole-1-yl) octanamide] | 188 nM | 8.78 nM |  |  |  |  |  | 
CCCNNC(=O)CCNC(=O)/C=C/c1cccnc1 [LEE1, (E)-N-(3-oxo-3-(2-propylhydrazino)propyl)-3-(pyridin-3-yl) acrylamide] | 13600 nM | 1560 nM |  |  |  | > 10000 nM |  | 
CCCNNC(=O)c1ccc(NC(=O)CCCCCCCn2cc(-c3cccnc3)nn2)cc1 [LEE41, N-(4-(2-propylhydrazino-1-carbonyl)phenyl)-8-(4-(pyridin-3-yl)-1H-1,2,3-triazole-1-yl) octanamide] | 78.7 nM | 1.08 nM |  |  |  | 18 nM |  | 
